Source: patent US9550811B2, “Peptide scaffold design” (BIONOR IMMUNO AS, priority 2010, dated 2017)

Assays:
Assay in all cases: REVEAL binding assay
Details in all cases: score as percentage of the signal generated by the positive control peptide
HLA-A24 = test system: HLA-A24
HLA-A2 = HLA-A2 (Homo sapiens, UniProt P04439, D140Y/D185E/D98H/E176V/E277Q/G131W/G231S/I119V/I121R/I166T/I218V/N151K/N90K/P208A/P217A/Q86G/Q94H/R138H/R169H)
Summary of the method: (§1)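 Synthetic nonamer peptides were tested for their ability to bind and stabilize MHC class I–peptide complexes, detected by the native conformation of the complex. Each peptide is scored relative to a positive-control known T-cell epitope.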

HLA-B7 = HLA-B7 (Homo sapiens, UniProt P01889)
Summary of the method: as §1

HLA-B27 = HLA-B27 (Homo sapiens, UniProt P01889, D138H/D201E/E176V/E204Q/G107R/H137Y/K202T/N104T/N87E/Q56L/Q94K/R106L/R155S/R180L/S101D/S121N/S48T/Y140D/Y33H/Y91C)
Summary of the method: as §1

HLA-A11 = HLA-A11 (Homo sapiens, UniProt P04439, A114D/F33Y/S129P)
Summary of the method: as §1

HLA-A3 = HLA-A3 (Homo sapiens, UniProt P04439)
Summary of the method: as §1

HLA-A1 = test system: HLA-A1
Experimental: Binding properties to HLA for the ninemers listed in table 6 were tested for the following HLA-classes:
(§2) HLA-A1, HLA-A2, HLA-A3, HLA-A11, HLA-A24, HLA-A29, HLA-B7, HLA-B8, HLA-B14, HLA-B15, HLA-B27, HLA-B35, HLA-B40.
(§3) The REVEAL™ binding assay determined the ability of each candidate peptide to bind to one or more MHC class I alleles and stabilizing the MHC-peptide complex. […] Detection is based on the presence or absence of the native conformation of the MHC-peptide complex. Each peptide is given a score relative to the positive control peptide, which is a known T cell epitope.

HLA-A29 = test system: HLA-A29
Text: as §2, §3

HLA-B35 = test system: HLA-B35
Text: as §2, §3

HLA-B8 = test system: HLA-B8
HLA-B40 = test system: HLA-B40
Summary of the method: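 Read-out: presence or absence of natively folded MHC–peptide complex. Values expressed as % of positive-control epitope signal per allele, plus putative pass/fail; weaker-binding intermediate control included.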

HLA-B14 = test system: HLA-B14
HLA-B15 = test system: HLA-B15
Text: as §2, §3

HLA-B7, sequence (P61769 21-119): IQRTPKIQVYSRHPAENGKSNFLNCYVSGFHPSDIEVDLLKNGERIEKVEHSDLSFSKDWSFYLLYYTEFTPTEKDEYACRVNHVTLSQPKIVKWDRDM
HLA-B7, sequence (P01889 25-299): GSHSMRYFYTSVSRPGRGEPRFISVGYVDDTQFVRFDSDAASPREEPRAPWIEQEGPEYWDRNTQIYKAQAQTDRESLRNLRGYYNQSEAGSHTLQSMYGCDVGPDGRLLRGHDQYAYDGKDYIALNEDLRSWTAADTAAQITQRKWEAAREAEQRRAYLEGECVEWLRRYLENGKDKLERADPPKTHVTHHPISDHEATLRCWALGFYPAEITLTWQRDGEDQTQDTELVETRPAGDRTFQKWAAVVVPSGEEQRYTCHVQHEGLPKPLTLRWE
HLA-A3, sequence (P04439 25-299): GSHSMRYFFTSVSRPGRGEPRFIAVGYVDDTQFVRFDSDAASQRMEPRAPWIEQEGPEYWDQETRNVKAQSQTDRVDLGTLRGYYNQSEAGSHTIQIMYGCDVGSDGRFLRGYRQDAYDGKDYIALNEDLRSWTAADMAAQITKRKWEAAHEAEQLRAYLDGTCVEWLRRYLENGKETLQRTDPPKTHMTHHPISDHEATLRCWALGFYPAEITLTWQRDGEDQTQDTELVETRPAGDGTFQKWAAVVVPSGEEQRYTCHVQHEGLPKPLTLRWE
HLA-A3, sequence (P61769 21-119, further chain): as the sequence (P61769 21-119) above

Sequence | REVEAL binding score, HLA-type A24 (HLA-A24) [%] | REVEAL binding score, HLA-type A2 (HLA-A2) [%] | REVEAL binding score, HLA-type B7 (HLA-B7) [%] | REVEAL binding score, HLA-type B27 (HLA-B27) [%] | REVEAL binding score, HLA-type A11 (HLA-A11) [%] | REVEAL binding score, HLA-type A3 (HLA-A3) [%] | REVEAL binding score, HLA-type A1 (HLA-A1) [%] | REVEAL binding score, HLA-type A29 (HLA-A29) [%] | REVEAL binding score, HLA-type B35 (HLA-B35) [%] | REVEAL binding score, HLA-type B8 (HLA-B8) [%] | REVEAL binding score, HLA-type B40 (HLA-B40) [%] | REVEAL binding score, HLA-type B14 (HLA-B14) [%] | REVEAL binding score, HLA-type B15 (HLA-B15) [%]
RVIAHGLRL | 0.79 | 18.68 | 102.96 | 15.57 | 17.75 | 13.32 | 11.60 | 23.22 | 1.43 | 12.60 | 24.08 | 0.42 | 106.77
RVIETLTSG | 0.96 | 9.82 | 0.50 | 2.32 | 3.25 | 2.23 | 11.61 | 15.52 | 1.90 | 11.83 | 32.30 | 0.11 | 37.99
SRNLGKVID | 0.71 | 4.94 | 1.28 | 1.28 | 4.45 | 3.46 | 15.30 | 9.94 | 4.59 | 16.71 | 33.93 | 0.67 | 11.25
TFSIYLIVS | 0.60 | 2.02 | 1.28 | 1.49 | 2.89 | 0.91 | 9.93 | 8.58 | 2.48 | 9.52 | 23.23 | 0.37 | 8.63
TGNIPGSTY | 0.86 | 3.59 | 1.32 | 1.98 | 6.06 | 13.04 | 10.58 | 35.10 | 48.40 | 10.25 | 38.15 | 1.15 | 52.30
TGNLPGCSF | 4.81 | 5.18 | 2.38 | 2.37 | 2.56 | 3.71 | 11.97 | 18.89 | 11.40 | 8.62 | 73.71 | 0.86 | 45.07
VARALAHGV | 0.32 | 5.85 | 31.59 | 0.62 | 3.47 | 2.77 | 16.10 | 29.43 | 0.27 | 14.31 | 44.29 | 0.17 | 11.26
VGGVYLLPR | 0.34 | 8.73 | 1.15 | 0.79 | 4.16 | 3.41 | 17.88 | 14.20 | 4.02 | 11.57 | 55.61 | 0.44 | 13.22
VIDTLTCGF | 0.95 | 5.14 | 0.45 | 1.11 | 6.00 | 2.93 | 25.85 | 13.90 | 3.26 | 10.00 | 27.24 | 0.11 | 9.49
VIETLTSGF | 0.82 | 4.84 | 0.71 | 1.38 | 3.66 | 2.55 | 14.61 | 13.07 | 2.39 | 12.96 | 24.04 | 0.35 | 10.37
VIRVIAHGL | 0.28 | 8.60 | 29.93 | 1.16 | 4.54 | 4.29 | 18.66 | 27.12 | 2.51 | 32.81 | 52.64 | 0.55 | 9.64
VTGNIPGST | 1.60 | 8.44 | 2.24 | 1.58 | 4.85 | 2.52 | 16.18 | 15.05 | 4.00 | 13.12 | 130.97 | 0.75 | 5.15
YATGNLPGC | 1.20 | 22.46 | 0.76 | 2.44 | 2.16 | 3.67 | 8.10 | 18.82 | 4.52 | 9.51 | 77.49 | 0.41 | 5.09
YIPLVGAPL | 4.51 | 35.00 | 41.87 | 0.69 | 3.54 | 5.29 | 21.80 | 31.09 | 99.81 | 33.10 | 30.22 | 0.13 | 54.57
YLPAVGAPI | 4.65 | 75.80 | 7.70 | 0.51 | 3.07 | 2.58 | 15.76 | 28.40 | 2.03 | 17.92 | 64.34 | 0.12 | 49.63
